Assay results taken from patent US10988477B2 (Merck Patent GmbH, priority 2018, dated 2021).

What was measured:
GCN2 kinase = GCN2 kinase (Homo sapiens, UniProt Q9P2K8); assay: GCN2 enzyme inhibition assay (Transcreener ADP2 fluorescence polarization); type: biochemical; conditions: compounds of Formula II; 280 μM ATP, 4 nM GCN2 kinase
Summary of the method: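 4 nM GCN2 + 200 μM (RS)7 + compound (0–8 μM), 10 min preinc.; start with ATP (280 μM final); 1 h, 25 °C; pH 7.5 Tris/NaCl/MgCl2/DTT; ADP FP readout; IC50, Ki(app) via tight-binding fit.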

[1] = molecular target: intracellular GCN2 (phosphorylation of the GCN2 substrate eIF2α) (Homo sapiens, UniProt Q9P2K8); assay: GCN2 cellular inhibition assay (AlphaScreen SureFire P-eIF2α Ser51, borrelidin-treated U2OS cells); type: cell-based; conditions: compounds of Formula II; biomarker assay, phosphorylated eIF2α Ser51 in borrelidin-treated U2OS cells
Summary of the method: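 Borrelidin at 10 μM is added to U2OS cells immediately after compound (4-fold dilution series, 40 μM top final) for 1 h at 37 °C. Phosphorylated eIF2α Ser51 in lysates is quantified by AlphaScreen and expressed as percent inhibition against borrelidin-stimulated controls.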

GCN2 kinase, sequence (Q9P2K8 whole entry): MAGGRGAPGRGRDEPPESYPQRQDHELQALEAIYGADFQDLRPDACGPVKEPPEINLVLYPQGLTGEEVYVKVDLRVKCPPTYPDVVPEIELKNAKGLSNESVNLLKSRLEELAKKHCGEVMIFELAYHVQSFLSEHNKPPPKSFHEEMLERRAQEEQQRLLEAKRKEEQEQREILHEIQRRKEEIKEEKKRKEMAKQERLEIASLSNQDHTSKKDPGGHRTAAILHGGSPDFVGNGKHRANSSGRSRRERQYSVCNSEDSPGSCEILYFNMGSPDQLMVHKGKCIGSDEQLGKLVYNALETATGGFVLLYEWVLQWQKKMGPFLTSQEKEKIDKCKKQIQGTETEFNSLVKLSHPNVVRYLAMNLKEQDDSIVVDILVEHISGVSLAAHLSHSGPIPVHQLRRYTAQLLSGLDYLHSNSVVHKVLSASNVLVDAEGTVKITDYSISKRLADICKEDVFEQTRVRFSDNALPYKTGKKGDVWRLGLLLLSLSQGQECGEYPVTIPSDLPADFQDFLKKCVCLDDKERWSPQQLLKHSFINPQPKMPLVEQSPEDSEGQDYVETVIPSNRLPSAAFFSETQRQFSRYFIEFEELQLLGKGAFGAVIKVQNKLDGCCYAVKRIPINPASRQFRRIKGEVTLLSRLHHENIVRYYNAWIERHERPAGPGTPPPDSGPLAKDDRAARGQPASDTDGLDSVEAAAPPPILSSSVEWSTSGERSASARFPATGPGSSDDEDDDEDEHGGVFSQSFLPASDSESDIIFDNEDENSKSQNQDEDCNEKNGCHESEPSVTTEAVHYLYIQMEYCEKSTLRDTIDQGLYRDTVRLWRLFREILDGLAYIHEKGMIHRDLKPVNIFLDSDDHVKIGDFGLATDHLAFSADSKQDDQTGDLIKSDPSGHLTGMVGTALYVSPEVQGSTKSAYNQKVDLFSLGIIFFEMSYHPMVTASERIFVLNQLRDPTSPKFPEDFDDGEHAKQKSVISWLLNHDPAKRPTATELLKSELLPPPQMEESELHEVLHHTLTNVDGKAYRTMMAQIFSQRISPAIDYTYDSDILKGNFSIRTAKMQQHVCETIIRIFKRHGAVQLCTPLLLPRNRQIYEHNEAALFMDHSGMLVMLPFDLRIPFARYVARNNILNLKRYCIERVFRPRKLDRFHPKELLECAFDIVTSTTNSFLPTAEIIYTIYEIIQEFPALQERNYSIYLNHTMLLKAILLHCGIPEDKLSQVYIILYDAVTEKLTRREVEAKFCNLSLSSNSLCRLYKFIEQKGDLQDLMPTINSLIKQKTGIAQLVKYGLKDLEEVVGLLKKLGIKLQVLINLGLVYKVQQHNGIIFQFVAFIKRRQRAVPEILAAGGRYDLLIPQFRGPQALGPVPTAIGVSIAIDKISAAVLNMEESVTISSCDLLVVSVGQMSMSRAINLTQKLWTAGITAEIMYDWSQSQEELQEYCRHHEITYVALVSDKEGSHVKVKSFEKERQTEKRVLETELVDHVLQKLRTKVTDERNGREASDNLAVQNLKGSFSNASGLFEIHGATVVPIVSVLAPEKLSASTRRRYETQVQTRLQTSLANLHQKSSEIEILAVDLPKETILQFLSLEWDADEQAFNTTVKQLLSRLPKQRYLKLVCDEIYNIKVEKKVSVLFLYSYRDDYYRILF
intracellular GCN2 (phosphorylation of the GCN2 substrate eIF2α), sequence (Q9P2K8 whole entry): as above

Ki (GCN2 kinase) | IC50 [1] | SMILES
< 10 nM | < 500 nM | CCN1CCN(c2cc(-c3cnc4ccc(C(F)F)nn34)ncn2)C(C)C1CNS(C)(=O)=O (stereo not drawn) [II-482, N-((4-(6-(6-(difluoromethyl)imidazo[12-b]pyridazin-3-yl)pyrimidin-4-yl)-1-ethyl-3-methylpiperazin-2-yl)methyl)methanesulfonamide]
10 to 1000 nM | > 5000 nM | NC(=O)CC1CN(c2cc(-c3cnc4ccc(C(F)F)nn34)ncn2)CCN1 (stereo not drawn) [II-483, 2-(4-(6-(6-(Difluoromethyl)imidazo[1,2-b]pyridazin-3-yl)pyrimidin-4-yl)piperazin-2-yl)acetamide]
< 10 nM | < 500 nM | C[C@H]1[C@@H](C[S@@](C)(=N)=O)CCCN1c1cc(-c2cnc3ccc(C(F)F)nn23)ncn1 [II-485, (S)-(((2S,3S)-1-(6-(6-(Difluoromethyl)imidazo[1,2-b]pyridazin-3-yl)pyrimidin-4-yl)-2-methylpiperidin-3-yl)methyl)(imino)(methyl)-λ^6-sulfanone]
10 to 1000 nM | 500 to 5000 nM | CC1C(CS(C)(=N)=O)CCCN1c1cc(-c2cnc3ccc(C(F)F)nn23)ncn1 (stereo not drawn) [II-486, ((1-(6-(6-(Difluoromethyl)imidazo[1,2-b]pyridazin-3-yl)pyrimidin-4-yl)-2-methylpiperidin-3-yl)methyl)(imino)(methyl)-λ^6-sulfanone]
10 to 1000 nM | < 500 nM | CC1C(CS(C)(=N)=O)CCCN1c1cc(-c2cnc3ccc(C(F)F)nn23)ncn1 (stereo not drawn) [II-487, ((1-(6-(6-(Difluoromethyl)imidazo[1,2-b]pyridazin-3-yl)pyrimidin-4-yl)-2-methylpiperidin-3-yl)methyl)(imino)(methyl)-λ^6-sulfanone]
10 to 1000 nM | > 5000 nM | CC1C(CS(C)(=N)=O)CCCN1c1cc(-c2cnc3ccc(C(F)F)nn23)ncn1 (stereo not drawn) [II-488, ((1-(6-(6-(Difluoromethyl)imidazo[1,2-b]pyridazin-3-yl)pyrimidin-4-yl)-2-methylpiperidin-3-yl)methyl)(imino)(methyl)-λ^6-sulfanone]
< 10 nM | < 500 nM | CC1CN(c2cc(-c3cnc4ccc(C(F)F)nn34)ncn2)C(C)C(CNS(C)(=O)=O)=C1F (stereo not drawn) [II-491, N-((1-(6-(6-(Difluoromethyl)imidazo[1,2-b]pyridazin-3-yl)pyrimidin-4-yl)-4-fluoro-2,5-dimethyl-1,2,5,6-tetrahydropyridin-3-yl)methyl)methanesulfonamide]
10 to 1000 nM | 500 to 5000 nM | CN1CCN(c2cc(-c3cnc4ccc(C(F)F)nn34)ncn2)CC1CC(N)=O (stereo not drawn) [II-492, 2-(4-(6-(6-(Difluoromethyl)imidazo[1,2-b]pyridazin-3-yl)pyrimidin-4-yl)-1-methylpiperazin-2-yl)acetamide]
10 to 1000 nM | 500 to 5000 nM | CS(=O)(=O)CCC1CCCN(c2cc(-c3cnc4ccc(C(F)F)nn34)ncn2)C1 (stereo not drawn) [II-493, 6-(Difluoromethyl)-3-(6-(3-(2-(methylsulfonyl)ethyl)piperidin-1-yl)pyrimidin-4-yl)imidazo[1,2-b]pyridazine]
< 10 nM | < 500 nM | CC1C(CNS(C)(=O)=O)N(CC2CC2)CCN1c1cc(-c2cnc3ccc(C(F)F)nn23)ncn1 (stereo not drawn) [II-495, N-((1-(Cyclopropylmethyl)-4-(6-(6-(difluoromethyl)imidazo[1,2-b]pyridazin-3-yl)pyrimidin-4-yl)-3-methylpiperazin-2-yl)methyl)methanesulfonamide]
10 to 1000 nM | > 5000 nM | OCCC1CN(c2cc(-c3cnc4ccc(C(F)F)nn34)ncn2)CCN1 (stereo not drawn) [II-496, 2-(4-(6-(6-(Difluoromethyl)imidazo[1,2-b]pyridazin-3-yl)pyrimidin-4-yl)piperazin-2-yl)ethan-1-ol]
10 to 1000 nM | 500 to 5000 nM | OCCC1CCCN(c2cc(-c3cnc4ccc(C(F)F)nn34)ncn2)C1 (stereo not drawn) [II-497, 2-(1-(6-(6-(Difluoromethyl)imidazo[1,2-b]pyridazin-3-yl)pyrimidin-4-yl)piperidin-3-yl)ethan-1-ol]
10 to 1000 nM | > 5000 nM | OCCC1CN(c2cc(-c3cnc4ccc(C(F)F)nn34)ncn2)CCO1 (stereo not drawn) [II-498, 2-(4-(6-(6-(Difluoromethyl)imidazo[1,2-b]pyridazin-3-yl)pyrimidin-4-yl)morpholin-2-yl)ethan-1-ol]
10 to 1000 nM | 500 to 5000 nM | OCCC1CCCN(c2cc(-c3cnc4ccc(C(F)(F)F)nn34)ncn2)C1 (stereo not drawn) [II-499, 2-(1-(6-(6-(Trifluoromethyl)imidazo[1,2-b]pyridazin-3-yl)pyrimidin-4-yl)piperidin-3-yl)ethan-1-ol]
10 to 1000 nM | > 5000 nM | OCCC1CN(c2cc(-c3cnc4ccc(C(F)(F)F)nn34)ncn2)CCO1 (stereo not drawn) [II-500, 2-(4-(6-(6-(Trifluoromethyl)imidazo[1,2-b]pyridazin-3-yl)pyrimidin-4-yl)morpholin-2-yl)ethan-1-ol]
10 to 1000 nM | > 5000 nM | O=C(O)[C@H]1CCCN(c2cc(-c3cnc4ccc(C(F)(F)F)nn34)ncn2)C1 [II-504, (S)-1-(6-(6-(Trifluoromethyl)imidazo[1,2-b]pyridazin-3-yl)pyrimidin-4-yl)piperidine-3-carboxylic acid]
10 to 1000 nM | > 5000 nM | O=C(O)[C@H]1CCCN(c2cc(-c3cnc4ccc(C(F)F)nn34)ncn2)C1 [II-505, (S)-1-(6-(6-(Difluoromethyl)imidazo[1,2-b]pyridazin-3-yl)pyrimidin-4-yl)piperidine-3-carboxylic acid]
10 to 1000 nM | > 5000 nM | O=C(O)[C@@H]1CCCN(c2cc(-c3cnc4ccc(C(F)(F)F)nn34)ncn2)C1 [II-506, (R)-1-(6-(6-(Trifluoromethyl)imidazo[1,2-b]pyridazin-3-yl)pyrimidin-4-yl)piperidine-3-carboxylic acid]
< 10 nM | < 500 nM | CC1CC(CNS(C)(=O)=O)C(C)N(c2cc(-c3cnc4ccc(C(F)F)nn34)ncn2)C1 (stereo not drawn) [II-511, N-((1-(6-(6-(Difluoromethyl)imidazo[1,2-b]pyridazin-3-yl)pyrimidin-4-yl)-2,5-dimethylpiperidin-3-yl)methyl)methanesulfonamide]
10 to 1000 nM | 500 to 5000 nM | OC[C@H]1CCCN(c2cc(-c3cnc4ccc(C(F)(F)F)nn34)ncn2)C1 [II-516, (S)-(1-(6-(6-(Trifluoromethyl)imidazo[1,2-b]pyridazin-3-yl)pyrimidin-4-yl)piperidin-3-yl)methanol]
10 to 1000 nM | > 5000 nM | OCC1CN(c2cc(-c3cnc4ccc(C(F)(F)F)nn34)ncn2)CCO1 (stereo not drawn) [II-518, (4-(6-(6-(Trifluoromethyl)imidazo[1,2-b]pyridazin-3-yl)pyrimidin-4-yl)morpholin-2-yl)methanol]
10 to 1000 nM | 500 to 5000 nM | OC[C@H]1CCCN(c2cc(-c3cnc4ccc(C(F)F)nn34)ncn2)C1 [II-519, (S)-(1-(6-(6-(Difluoromethyl)imidazo[1,2-b]pyridazin-3-yl)pyrimidin-4-yl)piperidin-3-yl)methanol]
10 to 1000 nM | 500 to 5000 nM | OC[C@@H]1CCCN(c2cc(-c3cnc4ccc(C(F)F)nn34)ncn2)C1 [II-520, (R)-(1-(6-(6-(Difluoromethyl)imidazo[1,2-b]pyridazin-3-yl)pyrimidin-4-yl)piperidin-3-yl)methanol]
10 to 1000 nM | 500 to 5000 nM | OCC1CN(c2cc(-c3cnc4ccc(C(F)F)nn34)ncn2)CCO1 (stereo not drawn) [II-521, (4-(6-(6-(Difluoromethyl)imidazo[1,2-b]pyridazin-3-yl)pyrimidin-4-yl)morpholin-2-yl)methanol]
10 to 1000 nM | 500 to 5000 nM | CS(=N)(=O)C1CCCN(c2cc(-c3cnc4ccc(C(F)F)nn34)ncn2)C1 (stereo not drawn) [II-522, (1-(6-(6-(Difluoromethyl)imidazo[1,2-b]pyridazin-3-yl)pyrimidin-4-yl)piperidin-3-yl)(imino)(methyl)-λ^6-sulfanone]
< 10 nM | < 500 nM | [2H]C([2H])([2H])N1CCN(c2cc(-c3cnc4ccc(C(F)F)nn34)ncn2)C(C)C1CNS(C)(=O)=O (stereo not drawn) [II-523, N-((4-(6-(6-(Difluoromethyl)imidazo[1,2-b]pyridazin-3-yl)pyrimidin-4-yl)-3-methyl-1-(methyl-d3)piperazin-2-yl)methyl)methanesulfonamide]
< 10 nM | < 500 nM | CC1CN(c2cc(-c3cnc4ccc(C(F)F)nn34)ncn2)CC(CNS(C)(=O)=O)C1=O (stereo not drawn) [II-525, N-((1-(6-(6-(Difluoromethyl)imidazo[1,2-b]pyridazin-3-yl)pyrimidin-4-yl)-5-methyl-4-oxopiperidin-3-yl)methyl)methanesulfonamide]
< 10 nM | < 500 nM | CC1CN(c2cc(-c3cnc4ccc(C(F)F)nn34)ncn2)CC(CNS(C)(=O)=O)C1=O (stereo not drawn) [II-526, N-((1-(6-(6-(Difluoromethyl)imidazo[1,2-b]pyridazin-3-yl)pyrimidin-4-yl)-5-methyl-4-oxopiperidin-3-yl)methyl)methanesulfonamide]
< 10 nM | < 500 nM | CC1CN(c2cc(-c3cnc4ccc(C(F)F)nn34)ncn2)CC(CNS(C)(=O)=O)C12OCCO2 (stereo not drawn) [II-527, N-((8-(6-(6-(Difluoromethyl)imidazo[1,2-b]pyridazin-3-yl)pyrimidin-4-yl)-10-methyl-1,4-dioxa-8-azaspiro[4.5]decan-6-yl)methyl)methanesulfonamide]
< 10 nM | < 500 nM | CS(=O)(=O)NCC1CN(c2cc(-c3cnc4ccc(C(F)F)nn34)ncn2)CC2(CC2)C1(F)F (stereo not drawn) [II-528, N-((5-(6-(6-(Difluoromethyl)imidazo[1,2-b]pyridazin-3-yl)pyrimidin-4-yl)-8,8-difluoro-5-azaspiro[2.5]octan-7-yl)methyl)methanesulfonamide]
